Assay [1] addresses T1, SlyA (Salmonella enterica, UniProt P40676). The experiment in a line: ITC with purified SlyA at […]°C; supported by 1H, […]-HSQC NMR. The class given is binding.
Assay [2] addresses T1, SlyA. The assay can be described thus: ITC with purified SlyA; supported by NMR. The class given is binding.

pKd: −log10 of the molar value.

A word on the pKd: it is the Kd on a negative log10 scale, so that one unit is a factor of ten.

T1 sequence (P40676 whole entry): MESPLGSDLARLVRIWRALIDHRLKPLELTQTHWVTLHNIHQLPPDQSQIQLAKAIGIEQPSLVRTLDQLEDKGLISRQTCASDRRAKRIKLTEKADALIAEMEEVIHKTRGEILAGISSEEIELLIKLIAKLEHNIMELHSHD

On to `O=C(O)c1cccc(O)c1O` [2,3-dihydroxybenzoate], for which the pKd on SlyA [1] was approximately 4.24.

Consider `O=C(O)c1ccc(O)cc1` [4-hydroxybenzoate], for which the pKd at SlyA [1] was approximately 4.00.

In the case of `O=C(O)c1ccccc1O` [salicylate], the pKd on SlyA [2] was 4.44.
